# Literature values in patent US20220202682A1, “INCREASING THE STABILITY OF AGENTS FOR THE TREATMENT OF KERATINOUS MATERIAL” (Henkel AG & Co. KGaA, priority 2019, published 2022).
# Conditions: 25° C.
row,SMILES,solubility in water
1,"O=S(=O)([O-])c1ccc(N=Nc2c(O)ccc3ccccc23)cc1.[Na+] [Acid Orange 7, sodium salt of 4-[(2-hydroxy-1-naphthyl)azo]benzene sulphonate]",more than 7 g/L
2,"Nc1cc(S(=O)(=O)[O-])cc2cc(S(=O)(=O)[O-])c(N=Nc3ccccc3)c(O)c12.[Na+].[Na+] [Acid Red 33, disodium salt of 5-amino-4-hydroxy-3-(phenylazo)-naphthalene-2,7-disulphonate]",2500 µg/mL
3,"O=C([O-])c1c(Cl)c(Cl)c(Cl)c(Cl)c1-c1c2c(Br)cc(=O)c(Br)c-2oc2c(Br)c(O)cc(Br)c12.O=C([O-])c1c(Cl)c(Cl)c(Cl)c(Cl)c1-c1c2c(Br)cc(=O)c(Br)c-2oc2c(Br)c(O)cc(Br)c12.[Na+].[Na+] [Acid Red 92, disodium salt of 3,4,5,6-tetrachloro-2-(1,4,5,8-tetrabromo-6-hydroxy-3-oxoxanthen-9-yl)benzoic acid]",greater than 10 g/L
4,"O=C([O-])C1=NN(c2ccc(S(=O)(=O)[O-])cc2)C(=O)C1N=Nc1ccc(S(=O)(=O)[O-])cc1.[Na+].[Na+].[Na+] (stereo not shown) [Acid Yellow 23, trisodium salt of 4,5-dihydro-5-oxo-1-(4-sulfophenyl)-4-((4-sulfophenyl)azo)-1H-pyrazole-3-carboxylic acid]",highly soluble
